One test deals with Botrytis cinerea. Description: Test on the preventive effect against cucumber gray mold (mycelium inoculation). The format is in vivo. Conditions: 48 h, test solution A 500 ppm, 5 ml per pot, cucumber cotyledon, agar block inoculation, 2 days at 20° C. In short, it runs like this: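 Cucumber cotyledons (Sagami Hanjiro) were sprayed with 5 ml per pot of a 500 ppm dilution of a 20 wt % emulsifiable concentrate. Next day, mycelial agar plugs of Botrytis cinerea were placed on cotyledons, held humid at 20° C for 2 days. Lesion proportion gave the control value; duplicate.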

A further test has as its system Sclerotinia sclerotiorum. The test can be described thus: Test on the preventive effect against cucumber stem rot. Conditions: 48 h, test solution A 500 ppm, 5 ml per pot, agar block inoculation, 2 days at 20° C. The format is in vivo. Put shortly:
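Cucumber (Sagami Hanjiro) at cotyledon stage sprayed with 5 ml/pot of 500 ppm compound from a 20 wt % emulsifiable concentrate, air-dried, then inoculated on seed leaves with agar blocks of S. sclerotiorum grown on PDA. Kept humid at 20° C for 2 days; lesion proportion scored and control value calculated, in duplicate.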

The subject of test [1] is Barber pole worm (Haemonchus contortus). Description: Insecticidal test against Barber pole worm (eggs, 96 well plate). The format is in vivo. Conditions: 96 h, test solution B 100 ppm, 10 μl per well, 25° C. dark, 4 days after treatment, read-out: efficacy (unhatched eggs and inactive larvae relative to non-treated). As for the experimental part: (§1) Compounds of the present invention were dissolved in dimethyl sulfoxide to prepare 1 wt % solutions. Then, distilled water was added to dilute the solutions to the prescribed concentration (100 ppm), and the obtained solutions were used in the following the Test Examples 9 to 12. 60 μl of a potato dextrose 1% agar medium was added to each well of a 96 well plate, and 30 μl of sterilized water containing eggs of Barber pole worm (Haemonchus contortus) (10 eggs/3 μl) was added to each well. Further, 10 μl per well of test solution B of the compounds of the present invention was added, and the plate was left at rest at 25° C. under dark conditions.

Test [2] has as its system Blumeria graminis f. sp. tritici. The test can be described thus: Test on the preventive effect against wheat powdery mildew. The format is in vivo. The settings on record: 168 h, test solution A 500 ppm, 5 ml per pot, wheat 1.3-leaf stage, 7 days after inoculation. Put shortly:
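Compounds formulated as 20 wt % emulsifiable concentrates and diluted with water to 500 ppm; 5 ml per pot applied to wheat (Norin 61) at the 1.3-leaf stage. Conidia inoculated one day later in a 20° C greenhouse; lesion proportion scored after 7 days as control value, in duplicate.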

In test [3] the test system is Southern root-knot nematode (Meloidogyne incoqnita). Description: Insecticidal test against Southern root-knot nematode (eggs, 96 well plate). The format is in vivo. The settings on record: 96 h, test solution B 100 ppm, 10 μl per well, 25° C. dark, 4 days after treatment, read-out: efficacy (unhatched eggs + inactive larvae relative to non-treated). As for the experimental part: as §1, with “Southern root-knot nematode (Meloidogyne incoqnita)” for “Barber pole worm (Haemonchus contortus)”

Another test relates to Asperaillus niger. The test can be described thus: Test on the antifungal activity against Asperaillus niger. The settings on record: 48 h; test solution B 100 ppm, 10 μl per well, 96 well plate, 25° C. dark, 2 days after treatment; read-out: efficacy (flora area ratio relative to non-treated well). The format is cell-based. As for the experimental part: as §1, with “spores” for “eggs”, “Asperaillus niger” for “Barber pole worm (Haemonchus contortus)”, “spores/3” for “eggs/3”, “conditions. 2 days after treatment, the flora area ratio (%) was determined to calculate the efficacy (%) relative to the non-treated well in accordance with the following formula. Efficacy (%)=[1−(flora area ratio in treated plot/flora area ratio in non-treated well)]×100” for “conditions.”

Some results are limits rather than exact numbers.

Take `O=C(NCC(F)(F)c1ncc(C#CC2CC2)cc1Cl)c1ccccc1C(F)(F)F` [1-005]: the pest or weed control at 500 µg/mL (in the test on Botrytis cinerea; in the test with Sclerotinia sclerotiorum; in test [2]) was no less than 70% throughout. Moreover, the pest or weed control at 100 µg/mL in test [1] and in test [3] was no less than 50% in each case. For the same molecule, in the test with Asperaillus niger, the inhibition of growth at 100 µg/mL was no less than 50%.

Consider `CC(CNC(=O)c1ccccc1C(F)(F)F)c1ncc(C#CC2CC2)cc1Cl` (stereo not drawn) [1-007, N-[2-[3-chloro-5-(cyclopropylethynyl)pyridin-2-yl]propyl]-2-(trifluoromethyl)benzamide], for which the pest or weed control at 500 µg/mL (in the test on Botrytis cinerea; in the test with Sclerotinia sclerotiorum; in test [2]) was no less than 70% each time. For the same molecule, the pest or weed control at 100 µg/mL in test [1] and in test [3] was no less than 50% each time. Also, the inhibition of growth at 100 µg/mL with Asperaillus niger is no less than 50%.

`Cn1cc(C(=O)NCC(F)(F)c2ncc(C#CC3CC3)cc2Cl)c(C(F)F)n1` [8-003]: the pest or weed control at 500 µg/mL (in the test on Botrytis cinerea; with Sclerotinia sclerotiorum; in test [2]) was no less than 70% throughout. Besides, the pest or weed control at 100 µg/mL in test [1] and in test [3] was no less than 50% throughout. Besides, the inhibition of growth at 100 µg/mL with Asperaillus niger is no less than 50%.

As to `CSC(CNC(=O)c1ccccc1C(F)(F)F)c1ncc(C#CC2CC2)cc1Cl` (stereo not drawn) [1-021], the pest or weed control at 500 µg/mL (in the test with Botrytis cinerea; with Sclerotinia sclerotiorum; in test [2]) was no less than 70% throughout. Besides, the pest or weed control at 100 µg/mL in test [1] and in test [3] was no less than 50% each time. Also, the inhibition of growth at 100 µg/mL in the test with Asperaillus niger is no less than 50%.

Regarding `O=C(NCCc1ncc(C#CC2CC2)cc1Cl)c1cccnc1C(F)F` [3-001, N-[2-[3-chloro-5-(cyclopropylethynyl)pyridin-2-yl]ethyl]-2-(difluoromethyl)nicotinamide], the pest or weed control at 500 µg/mL (in the test with Botrytis cinerea; in the test with Sclerotinia sclerotiorum; in test [2]) was no less than 70% throughout. Moreover, the pest or weed control at 100 µg/mL in test [1] and in test [3] was no less than 50% each time. In addition, the inhibition of growth at 100 µg/mL with Asperaillus niger is no less than 50%.

As to `O=C(NCC(c1ncc(C#CC2CC2)cc1Cl)C1CC1)c1cccnc1C(F)F` (stereo not drawn) [3-008], the pest or weed control at 500 µg/mL (in the test on Botrytis cinerea; in the test on Sclerotinia sclerotiorum; in test [2]) was no less than 70% in each case. Also, the pest or weed control at 100 µg/mL in test [1] and in test [3] was no less than 50% each time. In addition, in the test on Asperaillus niger, the inhibition of growth at 100 µg/mL is no less than 50%.

For the molecule `COC(c1ncc(C#CC2CC2)cc1Cl)C(C)NC(=O)c1sc(C)nc1C(F)F` (stereo not drawn) [9-006a], the pest or weed control at 500 µg/mL (in the test on Botrytis cinerea; in the test with Sclerotinia sclerotiorum; in test [2]) was no less than 70% throughout. Besides, the pest or weed control at 100 µg/mL in test [1] and in test [3] was no less than 50% throughout. Also, in the test with Asperaillus niger, the inhibition of growth at 100 µg/mL was no less than 50%.

Regarding `COC(c1ncc(C#CC2CC2)cc1Cl)C(C)NC(=O)c1cn(C)nc1C(F)F` (stereo not drawn) [8-028, N-[2-[3-chloro-5-(cyclopropylethynyl)pyridin-2-yl]-2-methoxy-1-methylethyl]-3-difluoromethyl-1-methyl-1H-pyrazole-4-carboxamide], the pest or weed control at 500 µg/mL (with Botrytis cinerea; with Sclerotinia sclerotiorum; in test [2]) was no less than 70% each time. Further, the pest or weed control at 100 µg/mL in test [1] and in test [3] was no less than 50% in each case. Moreover, the inhibition of growth at 100 µg/mL in the test on Asperaillus niger is no less than 50%.

For the molecule `Cn1cc(C(=O)NCCc2ncc(C#CC3CC3)cc2Cl)c(C(F)F)n1` [8-001], the pest or weed control at 500 µg/mL (with Botrytis cinerea; in the test with Sclerotinia sclerotiorum; in test [2]) was no less than 70% each time. Besides, the pest or weed control at 100 µg/mL in test [1] and in test [3] was no less than 50% throughout. The inhibition of growth at 100 µg/mL with Asperaillus niger is no less than 50%.

The record behind these values is patent US10029986B2, “Alkynyl pyridine-substituted amide compound and pesticide” (NISSAN CHEMICAL INDUSTRIES, LTD., priority 2014, dated 2018).
